Counter-ions that a name gives are not always drawn. Like-named read-outs stand apart in the source and are kept apart here. Values belong to the compound of their own block, whether it stands above or below them.
Columns and labels:
human intestinal S9 = test: TDF stability in human intestinal S9 fraction and effect of inhibitors; conditions: for inhibition of TDF hydrolysis: human S9
Method: (§3) TDF solutions were prepared at 10 μM in rat or human intestinal S9 fraction (0.5 mg protein/mL). Inhibitors were added to the solutions. […] Control samples included buffer, human S9, or rat S9 solutions with only TDF. Samples were incubated at 37°C for 0, 5, 10, 15, 20, and 30 min and then analyzed by LC-MS/MS for TDF, TFV-ME, TFV, and PP (to quantify stability).
(§4) Samples from S9 incubations were analyzed using the LC-MS/MS conditions described earlier for Caco-2 samples.

rat intestinal S9 = test: TDF stability in rat intestinal S9 fraction and effect of inhibitors; conditions: for inhibition of TDF hydrolysis: rat S9
Method: as §3, §4

P-gp [1] = test: MDCK-MDR1 efflux studies; format: in vitro ADME, canine; conditions: dog; for Papp B→A at 120 min, 5 µM: (SEM)
Method: (§1) MDCK-MDR1 cells (Netherlands Cancer Institute) were seeded at a density of 3 × 10^5 cells per well onto microporous polycarbonate membranes in 12-well Costar Transwell plates (Corning, Inc.). The cells were incubated for 3 days during which time they formed confluent monolayers. Monolayer integrity was checked using a Millicell-ERS instrument (Millipore) to determine the transepithelial electrical resistance (TEER) across the monolayer. […] […] Competency of the P-gp efflux transporter was confirmed by assay of propranolol (nonsubstrate) and amprenavir (substrate). Cell monolayers were incubated in triplicate with shaking (160 rpm) at 37°C for 2 h. Samples were removed from the apical and basolateral compartments after incubation and assayed for test compound concentrations by LC-MS/MS.
(§2) Conditions were similar to those used for Caco-2 analyses. Differences included the use of a Phenomenex Synergi Hydro-RP column (4 μm, 2.1 × 50 mm) at 60°C, mobile phases of aqueous 0.2% formic acid (A) and neat methanol (B), and a rapid 0.9 min gradient from 0% to 95% B.

MDCK-MDR1 cells (P-gp) = test: MDCK-MDR1 efflux studies; format: in vitro ADME, canine; conditions: for Papp, B to A / Papp, A to B: (SEM)
Method: as §1, §2

[2] = set-up: method as in PMID 9660984; conditions: oral administration of TDF; mice; cited from earlier work
[3] = set-up: method as in ref 50 = [50]; 50 Center for Drug Evaluation and Research (2001) Clinical Pharmacology and Pharmaceutics Review Application Number 21-356, page 78 Available at: http://www.accessdata.fda.gov/drugsatfda_docs/nda/2001; conditions: rat, literature, normalized for dose; cited from earlier work
[4] = set-up: method as in PMID 11557462, PMID 15217303; conditions: humans, cited from earlier work
in vitro [5] = conditions: rat, intestinal S9 fraction
Method: as §3, §4

[6] = test system: porcine pancrelipase (PL); test: Stability in SGF and FaSSIF with and without PL; format: in vitro ADME; conditions: 37°C; for stability in SGF and FaSSIF: without PL, up to 120 min, TDF 10 μM
Method: Samples were incubated at 37°C and quenched with acetonitrile at 0, 15, 30, 60, 90, and 120 min. For each time point, the % TDF or % TFV-ME remaining was determined by LC-MS/MS as described below.

[7] = test system: porcine pancrelipase (PL); test: Hydrolysis of TDF by PL and effect of enzyme inhibitors; format: biochemical; conditions: for half-life at 10 µM: pig, with none, Control, 10 μM TDF, PL, 37°C, no inhibitor, read-out: TDF t1/2; for protection of TDF against PL hydrolysis: PP or MP together or alone, FaSSIF with PL
Method: TDF solutions were prepared at 10 μM and incubated in triplicate at 37°C in FaSSIF containing PL at 480 U/mL with and without inhibitors. Inhibitors were added at 10% vol/vol for the oils (sesame, olive, safflower, soybean, and coconut); at 10 mM for PP, MP, and EM1; and at 0.05 mM/0.002 mM for EDTA/PMSF. Controls consisted of TDF in transport media or FaSSIF with and without PL. Samples were incubated at 37°C and quenched with acetonitrile at 10, 15, 20, and 30 min. For each time point, the % TDF or % TFV-ME remaining was determined by LC-MS/MS as described below.

Caco-2 cell monolayers = format: in vitro ADME
Method: (§5) Caco-2 monolayer experiments were performed as previously described[30] with a few modifications. […] Following incubation, the media was replaced to remove dead cells and prevent the formation of multiple layers of cells settling on the filter. Media was then changed every 2-3 days and plates were used in experiments after a total of 21 days from initial seeding. Monolayer integrity was checked before and after each experiment using a Millicell-ERS instrument to determine the TEER across the monolayer and to ensure that there was no substantial change in monolayer integrity throughout the duration of an experiment. On the day of the experiment, the TEER was assessed and the media in each plate was replaced with warm HBSS (pH 7) and allowed to equilibrate (37°C, 30 min). Apical (for apical-to-basolateral [A-to-B] transport) chambers were replaced with HBSS containing 10 μM (final concentration, n = 3 reps) aqueous solution of drug and inhibitors. Samples were taken from both apical and basolateral compartments at 120 min and diluted into an appropriate solvent to allow drug quantitation using LC-MS/MS.
(§6) Samples from permeability assays were also diluted into Mobile Phase A prior to analysis.
(§7) Mobile Phase A was 3/1/96 acetonitrile/acetic acid/water and Mobile Phase B was 96/1/3 acetonitrile/acetic acid/water. Rather than isocratic elution, a gradient program was used. The gradient program held at 0% B for 1 min, ramped to 98% B from 1 to 2 min, held at 98% B from 2 to 3 min, and then returned to initial conditions. Q1/Q3 ions for TFV-ME and TDF were 404.0/270.0 and 520.1/270.0, respectively.

[8] = set-up: method as in ref 33 = [33]; 33 Arimilli M. Kim C. Bischofberger N. Dougherty J. Synthesis, in vitro biological evaluation and oral bioavailability of prodrugs of the antiretroviral agent 9-[2-(phosphonomethoxy)-propyl] adenine; conditions: cited from earlier work
[9] = pH stability of TDF in SGF and FaSSIF; format: physicochemical; conditions: 1 mM TDF
Method: The pH of fasted state simulated intestinal fluid (FaSSIF)[27] was adjusted with 2M NaOH to pH of 6.8, 9, and 11. Simulated gastric fluid (SGF) was used as is at pH 1.2. TDF solutions (100 mM) were prepared in 99% dimethyl sulfoxide. TDF solutions (1 mM) were prepared by 100-fold dilution in FaSSIF and SGF. The pH of the final solution was not measured.
The TDF stability study at pH 1.2 was measured at 37°C in triplicate at 0, 15, 30, 60, 90, and 120 min. The TDF stability studies at pH 6.8, 9, and 11 were measured at 37°C in triplicate at 0, 30, 60, 120, and 240 min. Samples (5 μL) were quenched by diluting 200-fold with 4°C 0.1% formic acid (35% MeOH). These samples were analyzed by liquid chromatography tandem mass spectrometry (LC-MS/MS).

[10] = cited from earlier work
in vitro [11] = conditions: human, intestinal S9 fraction
Method: as §3, §4

[12] = dog, in vivo; cited from earlier work
[13] = test system: Caco-2 cell monolayers (P-gp); test: in vitro; format: in vitro ADME; conditions: Caco-2, 10 μM TDF, 120 min, no inhibitor (CsA 0.00 µM)
Method: as §5, §6, §7

P-gp [14] = test: in vitro; format: in vitro ADME; conditions: human, Caco-2, pH 7, with none (CsA 0.00 µM)
Method: as §5, §6, §7

in vivo = test: in vivo; set-up: species or system Sprague-Dawley rats; conditions: rat, given IV; for AUC: male, Sprague-Dawley, plasma, iv, AUC0-8h
lymphocytes = test system: lymphocytes; set-up: method as in PMID 9517941; conditions: cited from earlier work
[15] = test system: rat intestinal homogenates; set-up: method as in PMID 12124311; conditions: cited from earlier work
[16] = human S9, 10 μM TDF, 37°C, 10 μM BNPP, 100 μM PMSF, 0.05% wt/vol EM1, 1 mM PP, 1 mM MP, 1 mM EP
[17] = rat S9, 10 μM TDF, 37°C, 10 μM BNPP, 100 μM PMSF, 0.05% wt/vol EM1, 1 mM PP, 1 mM MP, 1 mM EP
[18] = MDCK-MDR1, with none (0 µM GF918)
[19] = Caco-2, versus no inhibitor, 1 mM BNPP, 1 mM PP, 0.05% wt/vol EM1, 0.5 mg/mL TPGS, 10 μM CsA, 2 μM GF918
[20] = Caco-2 A to B, 10 μM, 120 min, 1 mM BNPP, 1 mM PP, 0.05% wt/vol EM1, 0.5 mg/mL TPGS, 10 μM CsA, 2 μM GF918

Compound: O=S(=O)(F)Cc1ccccc1 [PMSF, phenylmethylsulfonyl fluoride]
TDF Rate Constant with inhibitor (human intestinal S9; [16]): -0.185 min⁻¹
inhibition of TDF hydrolysis (human intestinal S9; 100 μM PMSF, 1 mM EP, 1 mM MP): did not show any substantial inhibition
TDF Rate Constant with inhibitor (rat intestinal S9; [17]): -1.064 min⁻¹
inhibition of TDF hydrolysis (rat intestinal S9; 100 μM PMSF, 1 mM EP, 1 mM MP): did not show any substantial inhibition

Compound: CC(C)OC(=O)OCOP(=O)(CO[C@H](C)Cn1cnc2c(N)ncnc21)OCOC(=O)OC(C)C [TDF, Tenofovir disoproxil fumarate]
Papp A→B at 120 min, 5 µM (P-gp [1]; MDCK-MDR1, with GF918 2 µM): 2.25 ×10⁻⁶ cm/s
efflux ratio at 2 h, 5 µM (P-gp [1]; MDCK-MDR1, with GF918 2 µM): 1.5
Papp B→A at 120 min, 5 µM (P-gp [1]; MDCK-MDR1, with GF918 2 µM, MDCK-MDR1, 2 μM GF918, 120 min): 3.41 ×10⁻⁶ cm/s
Papp A→B at 120 min, 5 µM (P-gp [1]; [18]): 0.67 ×10⁻⁶ cm/s
efflux ratio at 2 h, 5 µM (P-gp [1]; [18]): 44.2
Papp B→A at 120 min, 5 µM (P-gp [1]; MDCK-MDR1, with none (0 µM GF918), MDCK-MDR1, 0 μM GF918, 120 min): 29.5 ×10⁻⁶ cm/s
Papp, B to A (MDCK-MDR1 cells (P-gp); MDCK-MDR1, 0 μM GF918, 120 min): 295.0 (6.1) nm/s
oral bioavailability of TFV [2]: 20%
AUC [3]: 1490 ng·h/mL
TDF oral bioavailability following a high fat meal ([4]; after high fat meal): 39%
oral bioavailability of TFV ([4]; oral administration of TDF): under 30%
half-life at 10 µM (in vitro [5]): 0.58 ± 1.79 min
half-life at 10 µM ([6]; pig, porcine pancrelipase (PL) in FaSSIF, 10 μM, PL 480 U/mL): 2 ± 2.3 min
stability in SGF and FaSSIF [6]: stable
TDF Rate Constant (human intestinal S9; human S9 0.5 mg protein/mL, 10 μM TDF, 37°C, Buffer (no inhibitor)): -1.123 min⁻¹
half-life at 10 µM ([7]; porcine pancrelipase (PL) in FaSSIF, FaSSIF): 6.35 min
half-life at 10 µM ([7]; porcine pancrelipase (PL) in transport media, transport media): 7.59 min
% Measured Basolateral, TDF (median) (Caco-2 cell monolayers; Caco-2 A to B, 10 μM, 120 min, no esterase inhibitor, no P-gp inhibitor): 0.78%
half-life ([8]; pH 2.2, 37°C): > 150 h
half-life ([8]; pH 7.4, 37°C): 8 h
half-life at 1 mM ([9]; FaSSIF pH 6.8, 37°C): 16.6 ± 3.4 h
half-life at 1 mM ([9]; FaSSIF pH 9, 37°C): 2.9 ± 0.2 h
half-life at 1 mM ([9]; FaSSIF pH 11, 37°C): 0.0567 ± 0.102 h
half-life at 1 mM ([9]; SGF pH 1.2, 37°C): > 55 h
pKa [10]: 3.75
partition coefficient (log P) [10]: 1.25
Biopharmaceutics Classification System class ([10]; high solubility and low permeability): class 3
water solubility ([10]; room temperature): 15.3 mg/mL
half-life at 10 µM (in vitro [11]): 0.62 ± 1.29 min
TDF Rate Constant (rat intestinal S9; rat S9 0.5 mg protein/mL, 10 μM TDF, 37°C, Buffer (no inhibitor)): -1.200 min⁻¹
oral bioavailability of TFV [12]: 30%
TDF Papp, A to B [13]: 0.698 ×10⁻⁶ cm/s
Papp A→B at 120 min, 10 µM (P-gp [14]; Caco-2, 10 μM TDF, 120 min, no inhibitor (CsA 0.00 µM)): 0.7 ×10⁻⁶ cm/s
efflux ratio at 120 min, 10 µM (P-gp [14]; read-out: TDF E.R. (efflux ratio)): 12
Papp B→A at 120 min, 10 µM (P-gp [14]; read-out: TDF Papp, B to A): 8.16 ×10⁻⁶ cm/s

Compound: CCOC(=O)c1ccc(O)cc1 [EP, ethylparaben]
TDF Rate Constant with inhibitor (human intestinal S9; [16]): -0.210 min⁻¹
inhibition of TDF hydrolysis (human intestinal S9; 100 μM PMSF, 1 mM EP, 1 mM MP): did not show any substantial inhibition
TDF Rate Constant with inhibitor (rat intestinal S9; [17]): -1.023 min⁻¹
inhibition of TDF hydrolysis (rat intestinal S9; 100 μM PMSF, 1 mM EP, 1 mM MP): did not show any substantial inhibition

Compound: CC(C)OC(=O)OCOP(=O)(O)CO[C@H](C)Cn1cnc2c(N)ncnc21 [TFV-ME, tenofovir monophosphonate ester]
Efflux ratio (MDCK-MDR1 cells (P-gp); MDCK-MDR1, 0 μM GF918): 2.1
Papp, A to B (MDCK-MDR1 cells (P-gp); MDCK-MDR1, 0 μM GF918, 120 min): 4.1 (0.20) nm/s
Papp, B to A (MDCK-MDR1 cells (P-gp); MDCK-MDR1, 0 μM GF918, 120 min): 8.8 (0.60) nm/s
Efflux ratio (MDCK-MDR1 cells (P-gp); MDCK-MDR1, 2 μM GF918): 0.9
Papp, A to B (MDCK-MDR1 cells (P-gp); MDCK-MDR1, 2 μM GF918, 120 min): 5.3 (0.61) nm/s
Papp, B to A (MDCK-MDR1 cells (P-gp); MDCK-MDR1, 2 μM GF918, 120 min): 5.0 (0.58) nm/s
half-life in FaSSIF with PL ([6]; 10 μM, PL 480 U/mL): 38.0 ± 2.0 min
stability in SGF and FaSSIF [6]: stable

Compound: O=[N+]([O-])c1ccc(OP(=O)(O)Oc2ccc([N+](=O)[O-])cc2)cc1 [BNPP, Bis-para-nitrophenylphosphate]
TDF Rate Constant with inhibitor (human intestinal S9): -0.009 min⁻¹
Fold Increase, TDF (A to B transport) (Caco-2 cell monolayers; [19]): 6.2 fold
Fold Increase, TFV Family (A to B transport) (Caco-2 cell monolayers; [19]): 3.1 fold
% Measured Basolateral, TDF (median), with inhibitor(s) (Caco-2 cell monolayers; [20]): 4.88%
% Measured Basolateral, TNF (median), with inhibitor(s) (Caco-2 cell monolayers; [20]): 0.00%
% Measured Basolateral, TNF-ME (median), with inhibitor(s) (Caco-2 cell monolayers; [20]): 0.55%
TDF Rate Constant with inhibitor (rat intestinal S9): -0.016 min⁻¹

protection of TDF against PL hydrolysis [7]: did not protect TDF
Compound: COC(=O)c1ccc(O)cc1 [MP, methylparaben]
TDF Rate Constant with inhibitor (human intestinal S9; [16]): -1.065 min⁻¹
inhibition of TDF hydrolysis (human intestinal S9; 100 μM PMSF, 1 mM EP, 1 mM MP): did not show any substantial inhibition
TDF Rate Constant with inhibitor (rat intestinal S9; [17]): -1.297 min⁻¹
inhibition of TDF hydrolysis (rat intestinal S9; 100 μM PMSF, 1 mM EP, 1 mM MP): did not show any substantial inhibition

AUC (in vivo; read-out: TFV AUC, Mean): 3210 ng·h/mL
AUC (in vivo; read-out: TFV AUC, Median): 3200 ng·h/mL
TFV AUC, Median Fold Increase (in vivo; versus oral TDF Control): 2.85 fold
Compound: C[C@H](Cn1cnc2c(N)ncnc21)OCP(=O)(O)O [TFV, tenofovir]
intracellular half-life (lymphocytes; activated lymphocytes): 720 to 900 min
intracellular half-life (lymphocytes; resting lymphocytes): 1980 to 3000 min

Compound: CCCOC(=O)c1ccc(O)cc1 [PP, propylparaben]
TDF Rate Constant with inhibitor (human intestinal S9; [16]): -0.035 min⁻¹
protection of TDF against PL hydrolysis [7]: did not protect TDF
TDF Rate Constant with inhibitor (rat intestinal S9; [17]): -0.196 min⁻¹
inhibition of TDF metabolism [15]: 94.5%

From PMC5320394, “Development of a Novel Formulation That Improves Preclinical Bioavailability of Tenofovir Disoproxil Fumarate” (Journal of Pharmaceutical Sciences, 2017)
